According to DBAASP:
In brackets after ≈: the same amount, converted by molar mass.

Key:
Experiment in all cases: ≥ marks a high value that may be exact or a test limit, other limits are often not marked, values filed in µg/mL are converted to µM
[1] = system: Pseudomonas aeruginosa 213
[2] = system: Pseudomonas aeruginosa PAO1 H103
[3] = system: Staphylococcus aureus ATCC 25923
[4] = system: Pseudomonas aeruginosa H1030
[5] = system: Pseudomonas aeruginosa 9
[6] = system: Enterococcus faecalis W61950
[7] = system: Escherichia coli ESBL 64771
[8] = system: Enterococcus faecalis f43559
[9] = system: Klebsiella pneumoniae ESBL 61962
[10] = system: Pseudomonas aeruginosa LES400
[11] = system: Staphylococcus aureus C623
[12] = system: Klebsiella pneumoniae ESBL 63575
[13] = system: Pseudomonas aeruginosa 198
[14] = system: Enterococcus faecium mic80
[15] = system: Escherichia coli ESBL 63103
[16] = system: Stenotrophomonas maltophilia ATCC 13637
[17] = system: Enterococcus faecium t62764
[18] = system: Enterobacter cloacae 218R
[19] = system: Pseudomonas aeruginosa H1027
[20] = system: Enterococcus faecalis ATCC 29212
[21] = system: Batrachochytrium dendrobatidis JEL-197
[22] = system: Klebsiella pneumoniae ATCC 10031
[23] = system: Pseudomonas aeruginosa ATCC 13388
[24] = system: Salmonella enterica subsp. enterica serovar Typhimurium ATCC 14028
[25] = system: Staphylococcus aureus ATCC 6538
[26] = system: Escherichia coli ATCC 11219
[27] = system: Staphylococcus aureus P1374
[28] = system: Staphylococcus aureus AB94004
[29] = system: Escherichia coli AB94012
[30] = system: Escherichia coli ATCC 25922
[31] = system: Pseudomonas aeruginosa ATCC 9027
[32] = system: Pseudomonas aeruginosa AB93066
[33] = system: Staphylococcus aureus P1381
[34] = system: Staphylococcus aureus 1399/17
[35] = system: Escherichia coli ESBL 521/17
[36] = system: Pseudomonas aeruginosa 522/17
[37] = system: Staphylococcus aureus SG511
[38] = system: Staphylococcus aureus ATCC 33591
[39] = system: Escherichia coli ML-35p
[40] = system: Klebsiella pneumoniae ESBL 344/17
[41] = system: Acinetobacter baumannii 7226/16

## CC[C@H](C)[C@H](NC(=O)[C@H](CC(N)=O)NC(=O)[C@H](CCCCN)NC(=O)[C@H](Cc1ccccc1)NC(=O)[C@H](CCCN=C(N)N)NC(=O)[C@H](Cc1c[nH]c2ccccc12)NC(=O)[C@H](C)N)C(=O)N[C@@H](CCCN=C(N)N)C(=O)N[C@@H](CCCCN)C(=O)O [AWRFKNIRK]
[1]
  MIC: ≥ 149 µM
[2]
  MIC: ≥ 149 µM
[3]
  MIC: 149 µM (≈ 182 µg/mL)
[4]
  MIC: ≥ 149 µM
[5]
  MIC: ≥ 149 µM
[6]
  MIC: ≥ 149 µM
[7]
  MIC: ≥ 149 µM
[8]
  MIC: ≥ 149 µM
[9]
  MIC: ≥ 149 µM
[10]
  MIC: ≥ 149 µM
[11]
  MIC: ≥ 149 µM
[12]
  MIC: ≥ 149 µM
[13]
  MIC: ≥ 149 µM
[14]
  MIC: ≥ 149 µM
[15]
  MIC: ≥ 149 µM
[16]
  MIC: ≥ 149 µM
[17]
  MIC: ≥ 149 µM
[18]
  MIC: ≥ 149 µM
[19]
  MIC: ≥ 74.7 µM
[20]
  MIC: > 149 µM

## CC[C@H](C)[C@H](NC(=O)[C@H](CC(C)C)NC(=O)[C@H](CCCCN)NC(=O)[C@@H]1CCCN1C(=O)[C@@H](NC(=O)[C@H](CC(C)C)NC(=O)[C@H](CC(N)=O)NC(=O)[C@H](C)NC(=O)[C@H](C)NC(=O)[C@H](CC(C)C)NC(=O)CNC(=O)[C@H](C)NC(=O)[C@H](CC(C)C)NC(=O)[C@@H](NC(=O)[C@@H]1CCCN1C(=O)[C@H](CC(C)C)NC(=O)[C@@H](N)Cc1ccccc1)[C@@H](C)CC)C(C)C)C(=O)N[C@H]1CSSC[C@@H](C(=O)O)NC(=O)[C@H](CCCCN)NC(=O)[C@H](CCCCN)NC(=O)[C@H]([C@@H](C)O)NC(=O)[C@H]([C@@H](C)CC)NC(=O)[C@H](CO)NC1=O [FLPILAGLAANLVPKLICSITKKC]
[21]
  MIC: 12.5 µM (≈ 31.6 µg/mL)

## CC[C@H](C)[C@H](NC(=O)CN)C(=O)N[C@@H](Cc1cnc[nH]1)C(=O)N[C@@H](CC(=O)O)C(=O)N[C@H](C(=O)N[C@@H](CC(C)C)C(=O)N[C@@H](CCCCN)C(=O)N[C@@H](Cc1ccc(O)cc1)C(=O)NCC(=O)N[C@@H](CCCCN)C(=O)N1CCC[C@H]1C(=O)N[C@@H](CO)C(N)=O)[C@@H](C)CC [GIHDILKYGKPS]
[22]
  MIC: 10 µM (≈ 13.3 µg/mL)
[23]
  MIC: 30 µM (≈ 39.8 µg/mL)
[24]
  MIC: 20 µM (≈ 26.5 µg/mL)
[25]
  MIC: 10 µM (≈ 13.3 µg/mL)
[26]
  MIC: 5 µM (≈ 6.63 µg/mL)

## CC[C@H](C)[C@H](NC(=O)CN)C(=O)N[C@@H](Cc1cnc[nH]1)C(=O)N[C@@H](CCCN=C(N)N)C(=O)N[C@H](C(=O)N[C@@H](CC(C)C)C(=O)N[C@@H](CCCCN)C(=O)N[C@@H](Cc1ccc(O)cc1)C(=O)NCC(=O)N[C@@H](CCCCN)C(=O)N1CCC[C@H]1C(=O)N[C@@H](CO)C(N)=O)[C@@H](C)CC [GIHRILKYGKPS]
[22]
  MIC: 3 µM (≈ 4.1 µg/mL)
[23]
  MIC: 10 µM (≈ 13.7 µg/mL)
[24]
  MIC: 3 µM (≈ 4.1 µg/mL)
[25]
  MIC: 10 µM (≈ 13.7 µg/mL)
[26]
  MIC: 2.2 µM (≈ 3.01 µg/mL)

## CC[C@H](C)[C@H](NC(=O)[C@H](CO)NC(=O)[C@H](CCCCN)NC(=O)[C@@H](NC(=O)CNC(=O)[C@H](CCCCN)NC(=O)[C@H](Cc1c[nH]c2ccccc12)NC(=O)[C@H](CC(C)C)NC(=O)[C@H](CCCCN)NC(=O)CNC(=O)[C@H](CC(C)C)NC(=O)[C@@H](NC(=O)[C@@H](N)CCCCN)[C@@H](C)CC)C(C)C)C(=O)N[C@@H](Cc1ccccc1)C(N)=O [KILGKLWKGVKSIF]
[27]
  MIC: 3.87 µM (≈ 6.25 µg/mL)
[28]
  MIC: 3.87 µM (≈ 6.25 µg/mL)
[3]
  MIC: 7.73 µM (≈ 12.5 µg/mL)
[29]
  MIC: 15.5 µM (≈ 25 µg/mL)
[30]
  MIC: 30.9 µM (≈ 50 µg/mL)
[25]
  MIC: 7.73 µM (≈ 12.5 µg/mL)
[31]
  MIC: 30.9 µM (≈ 50 µg/mL)
[32]
  MIC: 30.9 µM (≈ 50 µg/mL)
[33]
  MIC: 3.87 µM (≈ 6.25 µg/mL)

## CC[C@H](C)[C@H](NC(=O)[C@H](CCCCN)NC(=O)[C@H](Cc1c[nH]c2ccccc12)NC(=O)[C@@H](N)CCCCN)C(=O)N[C@@H](Cc1ccccc1)C(=O)N[C@@H](CCCN=C(N)N)C(=O)N[C@@H](CCCN=C(N)N)C(=O)N[C@@H](Cc1c[nH]c2ccccc12)C(=O)N[C@@H](Cc1c[nH]c2ccccc12)C(=O)O [KWKIFRRWW]
[1]
  MIC: 24.2 µM (≈ 34 µg/mL)
[2]
  MIC: 6.05 µM (≈ 8.5 µg/mL)
[3]
  MIC: 1.57 µM (≈ 2.2 µg/mL)
[4]
  MIC: 24.2 µM (≈ 34 µg/mL)
[5]
  MIC: 12.1 µM (≈ 17 µg/mL)
[6]
  MIC: ≥ 49.1 µM
[7]
  MIC: 6.05 µM (≈ 8.5 µg/mL)
[8]
  MIC: ≥ 49.1 µM
[9]
  MIC: ≥ 98.2 µM
[10]
  MIC: 6.05 µM (≈ 8.5 µg/mL)
[11]
  MIC: 1.57 µM (≈ 2.2 µg/mL)
[12]
  MIC: ≥ 49.1 µM
[13]
  MIC: 12.1 µM (≈ 17 µg/mL)
[14]
  MIC: 12.1 µM (≈ 17 µg/mL)
[15]
  MIC: 12.1 µM (≈ 17 µg/mL)
[16]
  MIC: 0.782 µM (≈ 1.1 µg/mL)
[17]
  MIC: 3.06 µM (≈ 4.3 µg/mL)
[18]
  MIC: 3.06 µM (≈ 4.3 µg/mL)
[19]
  MIC: 1.57 µM (≈ 2.2 µg/mL)
[20]
  MIC: 12.1 µM (≈ 17 µg/mL)

## CC[C@H](C)[C@H](NC(=O)[C@H](CCCN=C(N)N)NC(=O)[C@@H](NC(=O)[C@@H]1CCCN1C(=O)[C@@H]1CCCN1C(=O)[C@H](CCCN=C(N)N)NC(=O)[C@H](CCCN=C(N)N)NC(=O)[C@H](Cc1ccccc1)NC(=O)[C@@H]1CCCN1C(=O)[C@H](CC(C)C)NC(=O)[C@H](CCCN=C(N)N)NC(=O)[C@H](Cc1ccccc1)NC(=O)[C@@H](N)CCCN=C(N)N)[C@@H](C)CC)C(=O)N[C@@H](Cc1cnc[nH]1)C(=O)N1CCC[C@H]1C(=O)N1CCC[C@H]1C(=O)N1CCC[C@H]1C(=O)N[C@@H](Cc1ccccc1)C(=O)N[C@@H](Cc1ccc(O)cc1)C(N)=O [RFRLPFRRPPIRIHPPPFY]
[34]
  MIC: ≥ 32 µM
[35]
  MIC: 4 µM (≈ 9.85 µg/mL)
[36]
  MIC: ≥ 64 µM
[37]
  MIC: 4 µM (≈ 9.85 µg/mL)
[38]
  MIC: ≥ 64 µM
[39]
  MIC: 4 µM (≈ 9.85 µg/mL)
[40]
  MIC: 8 µM (≈ 19.7 µg/mL)
[41]
  MIC: 16 µM (≈ 39.4 µg/mL)

## CC[C@H](C)[C@H](NC(=O)[C@@H](N)CCCN=C(N)N)C(=O)N[C@@H](Cc1cnc[nH]1)C(=O)N1CCC[C@H]1C(=O)N1CCC[C@H]1C(=O)N1CCC[C@H]1C(=O)N[C@@H](Cc1ccccc1)C(=O)N[C@@H](Cc1ccc(O)cc1)C(=O)N1CCC[C@H]1C(=O)N1CCC[C@H]1C(=O)N[C@@H](Cc1ccccc1)C(=O)N[C@@H](CCCN=C(N)N)C(=O)N[C@@H](CCCN=C(N)N)C(=O)N[C@@H](Cc1ccccc1)C(=O)N[C@@H](CC(C)C)C(N)=O [RIHPPPFYPPFRRFL]
[34]
  MIC: ≥ 32 µM
[35]
  MIC: ≥ 32 µM
[36]
  MIC: ≥ 128 µM
[37]
  MIC: 8 µM (≈ 15.5 µg/mL)
[38]
  MIC: ≥ 90.5 µM
[39]
  MIC: ≥ 64 µM
[40]
  MIC: ≥ 64 µM
[41]
  MIC: ≥ 32 µM
